Molecules are shown by their SMILES.

The first data set addresses T1, naturally occurring proton-gated cation channel in a HEK293 cell (Homo sapiens, UniProt P78348).
T1 construct: a naturally occurring proton-gated cation channel in a HEK293 cell; endogenous in cells; host or cells: HEK293
T1 sequence (P78348 1-528): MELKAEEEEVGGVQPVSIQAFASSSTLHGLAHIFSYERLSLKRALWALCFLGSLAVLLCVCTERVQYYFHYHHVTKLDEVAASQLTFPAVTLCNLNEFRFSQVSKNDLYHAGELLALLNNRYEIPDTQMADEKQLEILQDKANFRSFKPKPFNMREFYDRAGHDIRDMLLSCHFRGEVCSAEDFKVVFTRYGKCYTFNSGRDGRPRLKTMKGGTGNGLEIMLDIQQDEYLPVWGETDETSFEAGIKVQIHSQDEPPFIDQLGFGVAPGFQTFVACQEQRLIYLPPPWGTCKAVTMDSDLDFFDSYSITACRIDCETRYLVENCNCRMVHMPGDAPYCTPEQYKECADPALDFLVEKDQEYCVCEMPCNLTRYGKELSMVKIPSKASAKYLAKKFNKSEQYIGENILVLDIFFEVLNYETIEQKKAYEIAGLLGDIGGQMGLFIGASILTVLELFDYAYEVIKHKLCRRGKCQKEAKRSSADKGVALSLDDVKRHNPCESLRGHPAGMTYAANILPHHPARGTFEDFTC
Nature of the data set: Patch clamp of whole cell currents elicited by a drop in extracellular pH in HEK293 cells. The class given is cell-based. Conditions: extracellular pH drop from 7.4 to 6.5, group IC50 below 100 nM, read-out: IC50, inhibition of the proton activated response. Here is the method:
In this example the current flux induced by protons over the membrane of a naturally occurring proton-gated cation channel in a HEK293 cell was determined using patch clamp techniques.
Using this technique, the effects of the compounds for use according to the invention was investigated on whole cell currents elicited by a drop in extracellular pH from 7.4 to 6.5.
For orientation: The patch-clamp technique gives a direct electrical read-out from membranes.
For the compound `CN1CCc2c(-c3ccc(F)cc3)cc3c(c2C1)NC(=O)C3=NO` [8-methyl-5-(4-fluorophenyl)-6,7,8,9-tetrahydro-1H-pyrrolo-[3,2-h]-isoquinoline-2,3-dione-3-oxim], the 50% inhibitory concentration (IC50) (usually the concentration that inhibits the measured activity by half) is less than 100 nM. On the same count and under the same terms, next, `CCN1CCc2c(-c3ccccc3)cc3c(c2C1)NC(=O)/C3=N/O` [8-ethyl-5-phenyl-6-7-8-9-tetrahydro-1H-pyrrolo-[3,2-h]-isoquinoline-2,3-dione-3-oxim]: less than 100 nM. As to `CC(=O)ON=C1C(=O)Nc2c1cc(-c1ccccc1)c1c2CN(C)CC1` [8-methyl-5-phenyl-6,7,8,9-tetrahydro-1H-pyrrolo-[3,2-h]-isoquinoline-2,3-dione-3-acetyloxim], the half-inhibitory concentration (IC50) was less than 100 nM.

For `CN1CCc2c(-c3ccc(Cl)cc3)cc3c(c2C1)NC(=O)C3=NO` [5-(4-chlorophenyl)-8-methyl-6-7-8-9-tetrahydro-1-H-pyrrolo-[3,2-h]-isoquinoline-2,3-dione-3-oxim], the IC50 is less than 100 nM. Still for that read-out and setting: next, `CN1CCc2c(-c3ccccc3)cc3c(c2C1)NC(=O)C3=NO` [8-methyl-5-phenyl-6-7-8-9-tetrahydro-1H-pyrrolo-[3,2-h]-isoquinoline-2,3-dione-3-oxim]: less than 100 nM; `CN1Cc2c(-c3cccc4ccccc34)cc3c(c2C1)NC(=O)C3=NO` [7-methyl-5-(1-naphthyl)-1-6-7-8-tetrahydrobenzo-[2,1-b:3,4-c]-dipyrrole-2,3-dione-3-oxime]: less than 100 nM. On to `CN1Cc2c(-c3ccccc3)cc3c(c2C1)NC(=O)C3=NO` [7-methyl-5-phenyl-1-6-7-8-tetrahydrobenzo-[2,1-b:3,4-c]-dipyrrole-2,3-dione-3-oxime], for which the half-inhibitory concentration (IC50) is less than 100 nM.

The data set is the same for the next values; noted with them: extracellular pH drop from 7.4 to 6.5, group IC50 below 1 μM (of from 100 nM to 1 μM), read-out: IC50, inhibition of the proton activated response.
In the case of `O=C1Nc2c(cc(-c3ccccc3)c3c2CN(Cc2ccccc2)CC3)C1=NO` [8-benzyl-5-phenyl-6-7-8-9-tetrahydro-1H-pyrrolo-[3,2-h]-isoquinoline-2,3-dione-3-oxim], the 50% inhibitory concentration (IC50) was less than 1000 nM. Consider `COc1ccccc1-c1cc2c(c3c1CCN(C)C3)NC(=O)/C2=N\O` [8-methyl-5-(2-methoxyphenyl)-6-7-8-9-tetrahydro-1-H-pyrrolo-[3.2-h]-isoquinoline-2,3-dione-3-oxim], for which the IC50 is less than 1000 nM. Still for that read-out and setting: next, `O=C1Nc2c(cc(-c3ccccc3)c3c2CNCC3)C1=NO` [5-phenyl-6-7-8-9-tetrahydro-1H-pyrrolo-[3,2-h]-isoquinoline-2,3-dione-3-oxim]: less than 1000 nM; `O=C1Nc2c(cc(-c3ccccc3)c3c2CN(CC2CC2)CC3)C1=NO` [8-cyclopropylmethyl-5-phenyl-6,7,8,9-tetrahydro-1H-pyrrolo-[3,2-h]-isoquinoline-2,3-dione-3-oxime]: less than 1000 nM; `CCN1Cc2c(-c3ccccc3)cc3c(c2C1)NC(=O)C3=NO` [7-ethyl-5-phenyl-1-6-7-8-tetrahydrobenzo-[2,1-b:3,4-c]-dipyrrole-2,3-dione-3-oxime]: less than 1000 nM. Turning to `CON=C1C(=O)Nc2c1cc(-c1ccccc1)c1c2CN(C)CC1` [8-methyl-5-phenyl-6-7-8-9-tetrahydro-1H-pyrrolo-[3,2-h]-isoquinoline-2,3-dione-3-methyloxim], the concentration for half-maximal inhibition (IC50) was less than 1000 nM. With `COc1cccc(-c2cc3c(c4c2CCN(C)C4)NC(=O)/C3=N\O)c1` [8-methyl-5-(3-methoxyphenyl)-6-7-8-9-tetrahydro-1-H-pyrrolo-[3.2-h]-isoquinoline-2,3-dione-3-oxim], the 50% inhibitory concentration (IC50) was less than 1000 nM. Consider `CCN1CCc2c(-c3ccccc3)cc3c(c2C1)N(C)C(=O)C3=NO` [8-ethyl-5-phenyl-6-7-8-9-tetrahydro-1-methyl-pyrrolo-[3,2-h]-isoquinoline-2,3-dione-3-oxim], for which the IC50 is less than 1000 nM.

Take `CN1CCc2c(-c3ccc4ccccc4c3)cc3c(c2C1)NC(=O)C3=NO` [5-(2-naphthyl)-8-methyl-6-7-8-9-tetrahydro-1-H-pyrrolo-[3.2-h]-isoquinoline-2,3-dione-3-oxim]: the IC50 was less than 1000 nM. On the same count and under the same terms, for `CN1Cc2c(-c3ccccc3)cc3c(c2C1)NC(=O)C3=NO` [7-methyl-5-phenyl-1-6-7-8-tetrahydrobenzo-[2,1-b:3,4-c]-dipyrrole-2,3-dione-3-oxime] the value was less than 1000 nM. On to `CN1CCc2c(-c3ccc(S(=O)(=O)N(C)C)cc3)cc3c(c2C1)NC(=O)C3=NO` [8-methyl-5-(4-(N,N-dimethylsulfamoyl)-phenyl)-6,7,8,9-tetrahydro-1H-pyrrolo-[3,2-h]-isoquinoline-2,3-dione-3-oxime], for which the half-inhibitory concentration (IC50) is less than 1000 nM. On the same count and under the same terms, for `CN1CCc2c(-c3ccccc3)cc3c(c2C1)NC(=O)C3=NOC(=O)C(C)(C)C` [8-methyl-5-phenyl-6-7-8-9-tetrahydro-1-H-pyrrolo-[3.2-h]-isoquinoline-2,3-dione-3-O-2,2-dimethylpropanoyl-oxim] the value was less than 1000 nM.

Still in this data set, the particulars now being: extracellular pH drop from 7.4 to 6.5, group IC50 below 10 μM (of from 1 μM to 10 μM), read-out: IC50, inhibition of the proton activated response.
For the compound `O=C1Nc2c(cc(-c3ccccc3)c3c2CCCC3)/C1=N/O` [5-phenyl-6-7-8-9-tetrahydro-1-H-pyrrolo-[3.2-h]-naphthalene-2,3-dione-3-oxim], the IC50 was in the range of 1000 to 10000 nM. On the same count and under the same terms, for `O=C1Nc2c(cc(-c3ccc(Cl)cc3)c3c2CCCC3)C1=NO` [5-(4-chlorophenyl)-6-7-8-9-tetrahydro-1-H-pyrrolo-[3.2-h]-naphthalene-2,3-dione-3-oxim] the value was 1000 to 10000 nM; for `COC(=O)CN1CCc2c(-c3ccccc3)cc3c(c2C1)NC(=O)C3=NO` [8-methoxycarbonylmethyl-5-phenyl-6,7,8,9-tetrahydro-1H-pyrrolo-[3,2-h]-isoquinoline-2,3-dione-3-oxime], 1000 to 10000 nM; for `CCN1CCc2c(-c3ccccc3)cc3c(c2C1)N(C)C(=O)C3=NOC` [8-ethyl-5-phenyl-6-7-8-9-tetrahydro-1-methyl-pyrrolo-[3,2-h]-isoquinoline-2,3-dione-3-O-methyloxim], 1000 to 10000 nM. The same measure, in the same setting: for `C#CCN1CCc2c(-c3ccccc3)cc3c(c2C1)NC(=O)C3=NO` [8-(2-propynyl)-5-phenyl-6,7,8,9-tetrahydro-1H-pyrrolo-[3,2-h]-isoquinoline-2,3-dione-3-oxime] the value was 1000 to 10000 nM. Still for that read-out and setting: next, `CN1CCc2c(-c3ccc([N+](=O)[O-])cc3)cc3c(c2C1)NC(=O)/C3=N\O` [8-methyl-5-(4-nitrophenyl)-6,7,8,9-tetrahydro-1H-pyrrolo-[3,2-h]-isoquinoline-2,3-dione-3-oxim]: 1000 to 10000 nM; `COc1ccc(-c2cc3c(c4c2CCN(C)C4)NC(=O)C3=NO)cc1` [8-methyl-5-(4-methoxyphenyl)-6-7-8-9-tetrahydro-1-H-pyrrolo-[3.2-h]-isoquinoline-2,3-dione-3-oxim]: 1000 to 10000 nM.

System in the next data set: not given
Assay: not given
Details: not given
As to `O=C1Nc2c(cc(-c3ccccc3)c3c2CN(Cc2ccccc2)CC3)C1=NO` [8-benzyl-5-phenyl-6-7-8-9-tetrahydro-1H-pyrrolo-[3,2-h]-isoquinoline-2,3-dione-3-oxim], the melting point (commonly the temperature of the solid-liquid transition) is 160 °C (dec.). The same measure, in the same setting: for `O=C1Nc2c(cc(-c3ccccc3)c3c2CN(CC2CC2)CC3)C1=NO` [8-cyclopropylmethyl-5-phenyl-6,7,8,9-tetrahydro-1H-pyrrolo-[3,2-h]-isoquinoline-2,3-dione-3-oxime] the value was 170 °C (dec.); for `C#CCN1CCc2c(-c3ccccc3)cc3c(c2C1)NC(=O)C3=NO` [8-(2-propynyl)-5-phenyl-6,7,8,9-tetrahydro-1H-pyrrolo-[3,2-h]-isoquinoline-2,3-dione-3-oxime], 170 °C (dec.).

The record behind these values is patent publication US7288653B2, “Inhibitors of proton-gated cation channels and their use in the treatment of ischaemic disorders” (PainCeptor Pharma Corporation, priority 1999, dated 2007).
